Experimental data as given in paper PMC1977912 (British Journal of Cancer, 1992).
“Also recorded” adds a separate entry of the source. Where two headings read alike, the source gives them in different places.

Columns and labels:
AR4-2J cells [1] = assay: Reversal by exogenous gastrin of antagonist-induced inhibition of AR4-2J proliferation; type: cell-based, rat; conditions: 5 x 10^-7 M gastrin added 2 h before the antagonist at its growth IC50
AR4-2J cells [2] = assay: Inhibition of unsynchronised AR4-2J cell proliferation by gastrin/CCK receptor antagonists (MTT assay, direct cell counts); type: cell-based; conditions: Rattus norvegicus, AR-42J, 96 h, read-out: half maximal inhibitory concentration, AR4-2J proliferation
gastrin/CCK-B receptors = biological target: T1, gastrin/CCK-B receptors (Rattus norvegicus, UniProt P30553); assay: Displacement of 125I-hG17-1 binding to AR4-2J cells; conditions: read-out: IC50 for displacing 125I-hG17-1 binding
T1 construct: AR4-2J cells were harvested, washed three times with Eagle's modified essential medium; host or cells: AR4-2J rat pancreatic acinar tumour cells (intact cells)
T1 sequence (P30553 1-452): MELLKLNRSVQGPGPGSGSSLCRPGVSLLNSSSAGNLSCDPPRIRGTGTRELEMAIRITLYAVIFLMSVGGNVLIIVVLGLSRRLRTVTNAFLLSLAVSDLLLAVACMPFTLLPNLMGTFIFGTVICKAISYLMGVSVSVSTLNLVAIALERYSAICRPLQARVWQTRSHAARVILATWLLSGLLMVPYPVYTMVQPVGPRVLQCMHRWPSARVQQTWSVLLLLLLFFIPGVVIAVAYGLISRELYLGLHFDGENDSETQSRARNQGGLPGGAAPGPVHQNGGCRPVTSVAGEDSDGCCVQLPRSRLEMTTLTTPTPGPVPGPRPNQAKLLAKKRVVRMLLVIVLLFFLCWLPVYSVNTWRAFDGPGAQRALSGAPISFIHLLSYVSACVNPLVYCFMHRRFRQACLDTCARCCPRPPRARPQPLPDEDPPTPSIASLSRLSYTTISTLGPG

HT-29 cells = assay: HT-29 cell proliferation (MTT assay); type: cell-based, human
AR4-2J cells [3] = assay: Effect of exogenous gastrin on AR4-2J proliferation in serum-free medium (MTT assay); type: cell-based, rat; conditions: up to 5 x 10^-6 M

Compound	effect of prior addition of gastrin on the inhibition of cell growth (AR4-2J cells [1])	further results
Cc1cccc(NC(=O)N[C@@H]2N=C(c3ccccc3)c3ccccc3N(C)C2=O)c1 [L-365,260, 3R(+)-N-(2,3-dihydro-1-methyl-2-oxo-5-phenyl-1H-1 ,4-benzodiazepin-3-yl) -N'-(3-methylphenyl)urea]	not reversed; also recorded: not significantly effected	
CCCN(CCC)C(=O)C(CCC(=O)O)NC(=O)c1ccccc1 (racemic) [proglumide, D,L-4-benzamido-N,N-di-n-propylgluta-ramic acid]	partially reversed	IC50 (AR4-2J cells [2]; 4 day incubation, text statement of range): 3000 µM; IC50 (gastrin/CCK-B receptors): 1300 µM
O=C(N[C@@H](Cc1c[nH]c2ccccc12)C(=O)O)c1ccc(Cl)cc1 [benzotript, N-p-chlorobenzoyl-L- tryptophan]	partially reversed	IC50 (gastrin/CCK-B receptors): 260 µM
CCCCCN(CCCCC)C(=O)C(CCC(=O)O)NC(=O)c1ccc(Cl)c(Cl)c1 (racemic) [lorglumide, D, L-4-(3,4-dichlorobenzoylamino)-5-(di-n-pentylamino)-5-oxo-pentanoic acid]	partially reversed	
CCCCCN(CCCOC)C(=O)C(CCC(=O)O)NC(=O)c1ccc(Cl)c(Cl)c1 (racemic) [loxiglumide, D,L-4-(3,4-di-chlorobenzoylamino) -5-(N-3-methoxypropylpentylamino)-5-oxo-pentanoic acid]	partially reversed	
gastrin		effect on HT-29 proliferation (HT-29 cells): neither exogenous gastrin nor an anti-gastrin Ig preparation effected proliferation; effect on proliferation of asynchronous AR4-2J cells (AR4-2J cells [3]): no significant effect
CN1C(=O)[C@@H](NC(=O)c2cc3ccccc3[nH]2)N=C(c2ccccc2)c2ccccc21 [devazepide, 3S (- )-N-(2,3-dihydro-l-methyl-2-oxo-5-phenyl-1 H-1,4-benzodiazepine-3-yl) -1H-indole-2-carboxamide]	not reversed; also recorded: not significantly effected	IC50 (AR4-2J cells [2]): 17 µM
